For 5 molecules, IC50 results are on record in paper PMC9920998, “Synthesis of Oleanolic Acid-Dithiocarbamate Conjugates and Evaluation of Their Broad-Spectrum Antitumor Activities” (Molecules, 2023).

pIC50: −log10 of the molar value. Bounds are passed on as bounds.

Usually pIC50 stands for the IC50 on a negative log10 scale, so that one unit is a factor of ten. The low end stands for a large IC50, the high end for a small IC50.

Format in all cases: cell-based
Experiment [1] relates to Panc1 cells (human pancreatic cancer). Kind of experiment: MTT cytotoxicity assay, Panc1. The method, then:
(§1) Having obtained a series of structurally diverse OA-dithiocarbamates, we next performed a systematic biological evaluation to examine whether introducing an extra dithiocarbamate group could improve antitumor activities. These compounds were evaluated by MTT assay against human pancreatic cancer (Panc1), human lung cancer (A549), human hepatoma cell (Hep3B), human hepatoma cell (Huh-7), human colon cancer (HT-29), and human cervical cancer (Hela) cells, with the widely used anticancer drugs fluorouracil, docetaxel, and cisplatin as positive controls (Table 2). […] Moreover, the cytotoxicities of compounds 3a-3t were also evaluated in human normal hepatocytes (LO2) to determine whether these compounds preferred killing tumor cells over normal cells.
(§2) The optical density at 490 nm of each well was measured using a microplate reader (Molecular devices corporation, Sunnyvale, CA. USA) to calculate the percent of cell viability. The inhibition rates were calculated using GraphPad Prism 7.0 software. The seven tested cell lines were obtained from the laboratory of Molecular Pharmacology, Department of Pharmacology, School of Pharmacy, Southwest Medical University.
(§3) The in vitro cytotoxic activities of the compounds were evaluated by MTT assay against Panc1, A549, Hep3B, Huh-7, HT-29, Hela, LO2. Cell lines were obtained from the Laboratory of Molecular Pharmacology, Southwest Medical University. Briefly, different tumor cells grew in DMEM medium except for A549, which used 1640 medium. Cells ((3–5) × 10^3 cells/well) were harvested at the log phase of growth and seeded in 96-well plates. After 24 h incubation at 37 °C in 5% CO2 to allow cell attachment, cultures were exposed to various concentrations of the isolated compounds for 48 h. Finally, the MTT solution was added. Plates were further incubated for 4 h at 37 °C after adding 150 µL/well of DMSO and shaking for 10 min on the shaker platform. The plates were read in a 96-well plate reader at 490 nm wavelength. The results were expressed as IC50 values, and were defined as the concentration at which 50% survival of cells was obtained. Fluorouracil, docetaxel, and cisplatin were co-assayed as positive controls.

The test system of experiment [2] is A549 cells (human lung cancer). Kind of experiment: MTT cytotoxicity assay, A549. The conditions noted are these: 48 h exposure. The method, then:
as §1, §2, §3

For experiment [3], the system named is Hep3B cells (human hepatoma cell). Kind of experiment: MTT cytotoxicity assay, Hep3B. The conditions noted are these: 48 h exposure. The method, then:
as §1, §2, §3
In general terms: Tetrazolium assays rely on reduction of a dye to a coloured formazan, in cell work by metabolically active cells.

For experiment [4], the system named is Huh-7 cells (human hepatoma cell). Kind of experiment: MTT cytotoxicity assay, Huh-7. The conditions noted are these: Huh-7, MTT, 48 h exposure. Here is the method:
as §1, §2, §3

The subject of experiment [5] is Hela cells (human cervical cancer). Kind of experiment: MTT cytotoxicity assay, Hela. The conditions noted are these: 48 h exposure. The method, then: as §1, §2, §3
The subject of experiment [6] is LO2 cells (human normal hepatocytes). Kind of experiment: MTT cytotoxicity assay, LO2 normal cells. The method, then:
as §1, §2, §3

Experiment [7] concerns HT-29 cells (human colon cancer). Kind of experiment: MTT cytotoxicity assay, HT-29. The conditions noted are these: HT-29, MTT, 48 h exposure. The method, then: as §1, §2, §3
The mark [8] stands for this setting: Homo sapiens, PANC-1, 48 h exposure.

On to `CC1(C)CC[C@]2(C(=O)OCCSC(=S)N3CCCC3)CC[C@]3(C)C(=CC[C@@H]4[C@@]5(C)CC[C@H](O)C(C)(C)[C@@H]5CC[C@]43C)[C@@H]2C1` [3a, [2-((pyrrolidine-1-carbonothioyl)thio)ethyl] 3-hydroxy-12-en-28-oic acid], for which the pIC50 in experiment [1] (setting [8]) is less than 3.70; in experiment [2] (Homo sapiens), 4.04; in experiment [3] (Homo sapiens) it was less than 3.70; in experiment [4] (Homo sapiens), 3.84; in experiment [5] (Homo sapiens), 4.05; in experiment [6] (L02, 48 h exposure), 3.95.
On to `O=c1[nH]cc(F)c(=O)[nH]1` [5-fluorouracil], for which the negative logarithm of the IC50 (pIC50) in experiment [1] (setting [8]) is 3.80; in experiment [2] (Homo sapiens) it was 3.90; in experiment [3] (Homo sapiens) it was 3.82; in experiment [4] (Homo sapiens), 3.85; in experiment [7] (Homo sapiens) it was 4.03; in experiment [5] (Homo sapiens) it was 3.88. For the same molecule, the pIC50 in experiment [6] (L02, 48 h exposure) was 3.96.
As for `N.N.[Cl][Pt][Cl]` [Cisplatin], the pIC50 in experiment [1] (48 h exposure) was less than 3.70; in experiment [2], less than 3.70; in experiment [3], less than 3.70; in experiment [4], less than 3.70; in experiment [7] it was less than 3.70; in experiment [5], 3.85. The molecule further gave a pIC50 in experiment [6] (48 h exposure) of less than 3.70.
`CC(=O)O[C@@]12CO[C@@H]1C[C@H](O)[C@@]1(C)C(=O)[C@H](O)C3=C(C)[C@@H](OC(=O)[C@H](O)[C@@H](NC(=O)OC(C)(C)C)c4ccccc4)C[C@@](O)([C@@H](OC(=O)c4ccccc4)[C@H]21)C3(C)C` [Docetaxel]: the pIC50 in experiment [1] (setting [8]) was less than 3.70; in experiment [2] (Homo sapiens) it was less than 3.70; in experiment [3] (Homo sapiens) it was 3.76; in experiment [4] (Homo sapiens), 3.98; in experiment [7] (Homo sapiens), less than 3.70; in experiment [5] (Homo sapiens), 3.87. Also, the pIC50 in experiment [6] (L02, 48 h exposure) was 3.85.
For the molecule `CC1(C)CC[C@]2(C(=O)O)CC[C@]3(C)C(=CC[C@@H]4[C@@]5(C)CC[C@H](O)C(C)(C)[C@@H]5CC[C@]43C)[C@@H]2C1` [OA, oleanolic acid], the pIC50 in experiment [1] (setting [8]), in experiment [2] (Homo sapiens), in experiment [3] (Homo sapiens), in experiment [4] (Homo sapiens), in experiment [7] (Homo sapiens) and in experiment [5] (Homo sapiens) was less than 3.70 throughout. In addition, the negative-log IC50 (pIC50) in experiment [6] (L02, 48 h exposure) is 3.85.
